Test results from EP4707277A1, “NOVEL HETEROCYCLIC AMINE DERIVATIVES AND PHARMACEUTICAL COMPOSITION COMPRISING SAME” (Daewoong Pharmaceutical Co., Ltd., priority 2023, dated 2024).
Read-outs that look alike come from different tables or passages of the source.

What was measured:
BTK = biological target: T1, BTK (Homo sapiens, UniProt Q06187); experiment: Inhibitory activity against BTK, ADP-Glo Kinase system (Promega); type: biochemical
T1 construct: purchased Signalchem B10-10H
Method: (§1) Inhibitory activities against BTK and ITK were measured for the compounds prepared in the above Examples as follows.
(§2) The inhibitory activities against BTK and ITK were evaluated using 'ADP-Glo™ Kinase system' (Promega Corporation). In the case of this evaluation method, activation was measured by quantifying the amount of ADP produced during the kinase reaction, which was utilized to measure the inhibitory activities against BTK and ITK.
(§3) Specifically, the inhibitory activities against BTK and ITK were measured using BTK kinase (Signalchem, B10-10H), ITK kinase (Signalchem, I13-11G-10), and ADP-Glo kinase assay kit (Promega, V9102). Recombinant purified human BTK and ITK were diluted with 1 x kinase reaction buffer (40 mM Tris-Cl, pH 7.5, 20 mM MgCl2, 0.1 mg/mL BSA, 2 mM MnCl2 and 50 uM DTT) and added to a 96 well plate (ITK: final concentration of 4 ng per reaction/BTK: final concentration of 10 ng per reaction). The compounds prepared in the previous Examples were treated so as to be finally a 1% DMSO aqueous solution, and a substrate cocktail containing ATP (1mM or Km ATP (BTK: 10 uM /ITK: 25uM)) and 0.2 ug/ul of Poly (Glu4,Tyr1) peptide (BTK and ITK final concentration) in the total 25 uL reactants was added to a 96-well plate to initiate enzymatic reaction. After incubation (30°C) for 1 hour, equivalent volume (25 uL per reaction) of ADP Glo was added, and incubated (30°C) for 40 minutes at room temperature. Then, a kinase detection reagent (45 uL per reaction) was added, and incubated (30°C) for 30 minutes at room temperature. The kinase activity was measured by chemiluminescence according to the instructions of ADP Glo kinase assay kit, and the inhibitory activity of the compounds according to the present disclosure was calculated. For the analysis of the results of each compound, Microsoft Excel was used, and IC50 values were calculated by GraphPad Prism software.

ITK = biological target: T2, ITK (Homo sapiens, UniProt Q08881); experiment: Inhibitory activity against ITK, ADP-Glo Kinase system (Promega); type: biochemical
T2 construct: purchased Signalchem I13-11G-10
T2 sequence (Q08881 1-620): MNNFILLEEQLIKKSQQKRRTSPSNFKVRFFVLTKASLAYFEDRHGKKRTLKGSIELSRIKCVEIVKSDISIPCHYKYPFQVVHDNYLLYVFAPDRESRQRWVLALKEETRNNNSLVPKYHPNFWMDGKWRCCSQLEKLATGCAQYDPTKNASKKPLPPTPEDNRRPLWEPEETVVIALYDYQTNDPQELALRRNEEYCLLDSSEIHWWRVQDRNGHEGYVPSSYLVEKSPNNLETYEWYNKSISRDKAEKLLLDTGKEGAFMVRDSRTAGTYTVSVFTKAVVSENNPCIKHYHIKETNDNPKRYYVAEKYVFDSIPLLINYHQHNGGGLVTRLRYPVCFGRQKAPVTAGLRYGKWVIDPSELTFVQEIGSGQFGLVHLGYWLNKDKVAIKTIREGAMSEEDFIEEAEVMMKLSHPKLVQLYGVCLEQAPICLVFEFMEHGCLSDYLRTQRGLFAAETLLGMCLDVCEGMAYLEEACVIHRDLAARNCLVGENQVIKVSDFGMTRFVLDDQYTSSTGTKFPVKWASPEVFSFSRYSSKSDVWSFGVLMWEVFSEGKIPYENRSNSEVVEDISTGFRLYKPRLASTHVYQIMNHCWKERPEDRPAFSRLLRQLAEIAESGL
Method: as §1, §2, §3

[1] = 1mM ATP, read-out: BTK IC50(nM) 1mM ATP
[2] = 1mM ATP, read-out: ITK IC50(nM) 1mM ATP
[3] = Km ATP (BTK: 10 uM), read-out: BTK IC50(nM) Km ATP
[4] = Km ATP (ITK: 25uM), read-out: ITK IC50(nM) Km ATP

T1 sequence (Q06187 whole entry): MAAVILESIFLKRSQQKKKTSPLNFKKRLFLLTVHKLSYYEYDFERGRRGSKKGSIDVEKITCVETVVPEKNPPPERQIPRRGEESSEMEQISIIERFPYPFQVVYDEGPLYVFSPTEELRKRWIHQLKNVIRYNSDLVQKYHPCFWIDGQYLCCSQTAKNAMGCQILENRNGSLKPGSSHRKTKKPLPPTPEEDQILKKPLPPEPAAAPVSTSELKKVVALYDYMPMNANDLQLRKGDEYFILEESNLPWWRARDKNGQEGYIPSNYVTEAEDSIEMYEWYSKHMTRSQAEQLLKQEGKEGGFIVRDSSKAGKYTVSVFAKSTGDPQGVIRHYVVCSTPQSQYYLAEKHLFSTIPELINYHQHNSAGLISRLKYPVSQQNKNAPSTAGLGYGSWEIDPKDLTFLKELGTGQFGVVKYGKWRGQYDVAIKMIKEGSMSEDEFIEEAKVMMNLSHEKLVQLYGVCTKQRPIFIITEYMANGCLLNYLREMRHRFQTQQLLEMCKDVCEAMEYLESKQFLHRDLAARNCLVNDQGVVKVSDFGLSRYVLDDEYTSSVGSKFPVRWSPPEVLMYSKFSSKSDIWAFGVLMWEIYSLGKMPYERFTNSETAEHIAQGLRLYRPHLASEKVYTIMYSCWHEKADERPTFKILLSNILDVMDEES

Structure (SMILES)	IC50 (BTK; [1]) [nM]	IC50 (ITK; [2]) [nM]	IC50 (BTK; [3]) [nM]	IC50 (ITK; [4]) [nM]
C=CC(=O)N1CC=C(c2nc(Nc3ncc(C)s3)cc3c2ccn3CCc2ccccc2)CC1 [Example 16, 1-(4-(6-((5-methylthiazol-2-yl)amino)-1-phenethyl-1H-pyrrolo[3,2-c]pyridin-4-yl)-3,6-dihydropyridin-1(2H)-yl)prop-2-en-1-one]			≤ 20	≤ 20
C=CC(=O)Nc1cc(-c2nc(Nc3ncc(C)s3)cc3c2ccn3CC2CC2)ccc1F [Example 64, N-(5-(1-(cyclopropylmethyl)-6-((5-methylthiazol-2-yl)amino)-1H-pyrrolo[3,2-c]pyridin-4-yl)-2-fluorophenyl)acrylamide]			≤ 20	≤ 20
C=CC(=O)N1C2C=C(c3nc(Nc4ncc(C)s4)cc4c3ccn4C(C)C)CC1COC2 (centres unmarked) [Example 27, 1-(7-(1-isopropyl-6-((5-methylthiazol-2-yl)amino)-1H-pyrrolo[3,2-c]pyridin-4-yl)-3-oxa-9-azabicyclo[3.3.1]non-6-en-9-yl)prop-2-en-1-one]			≤ 20	≤ 20
C=CC(=O)N1CC(C)(Oc2nc(Nc3ncc(C)s3)cc3c2ccn3CC(C)C)C1 [Example 119, 1-(3-((1-isobutyl-6-((5-methylthiazol-2-yl)amino)-1H-pyrrolo[3,2-c]pyridin-4-yl)oxy)-3-methylazetidin-1-yl)prop-2-en-1-one]			≤ 20	≤ 20
C=CC(=O)N1CC[C@H](Oc2nc(Nc3ncc(C)s3)cc3c2ccn3CC(C)CC)C1 (stereo partly drawn) [Example 123, 1-((3S)-3-((1-(2-methylbutyl)-6-((5-methylthiazol-2-yl)amino)-1H-pyrrolo[3,2-c]pyridin-4-yl)oxy)pyrrolidin-1-yl)prop-2-en-1-one]			≤ 20	≤ 20
C=CC(=O)N1CCC[C@H]1COc1nc(Nc2ncc(C)s2)cc2c1ccn2CC(C)CC (stereo partly drawn) [Example 221, 1-((2S)-2-(((1-(2-methylbutyl)-6-((5-methylthiazol-2-yl)amino)-1H-pyrrolo[3,2-c]pyridin-4-yl)oxy)methyl)pyrrolidin-1-yl)prop-2-en-1-one]	≤ 20	20 to 100		
C=CC(=O)N1CC[C@H](Oc2nc(Nc3ncc(C)s3)cc3c2ccn3CC2(C(F)(F)F)CC2)C1 (stereo in doubt) [Example 102, (S)-1-(3-((6-((5-methylthiazol-2-yl)amino)-1-((1-(trifluoromethyl)cyclopropyl)methyl)-1H-pyrrolo[3,2-c]pyridin-4-yl)oxy)pyrrolidin-1-yl)prop-2-en-1-one]	≤ 20	≤ 20		
C=CC(=O)N1CC(C)(Oc2nc(Nc3ncc(C)s3)cc3c2ccn3C2CCCC2)C1 [Example 165, 1-(3-((1-cyclopentyl-6-((5-methylthiazol-2-yl)amino)-1H-pyrrolo[3,2-c]pyridin-4-yl)oxy)-3-methylazetidin-1-yl)prop-2-en-1-one]	≤ 20	≤ 20		
C=CC(=O)N1CC=C(c2nc(Nc3ccncn3)cc3c2ccn3C(C)C)CC1 [Example 43, 1-(4-(1-isopropyl-6-(pyrimidin-4-ylamino)-1H-pyrrolo[3,2-c]pyridin-4-yl)-3,6-dihydropyridin-1(2H)-yl)prop-2-en-1-one]	≤ 20	20 to 100		
C=CC(=O)N1CC[C@@H](Oc2nc(Nc3ncc(C)s3)cc3c2ccn3CC2CC2)C1 [Example 144, (R)-1-(3-((1-(cyclopropylmethyl)-6-((5-methylthiazol-2-yl)amino)-1H-pyrrolo[3,2-c]pyridin-4-yl)oxy)pyrrolidin-1-yl)prop-2-en-1-one]	> 500	> 500		
C=CC(=O)N1CC=C(c2nc(Nc3ncc(C)s3)cc3c2ccn3[C@H](C)CC)CC1 [Example 14, (R)-1-(4-(1-(sec-butyl)-6-((5-methylthiazol-2-yl)amino)-1H-pyrrolo[3,2-c]pyridin-4-yl)-3,6-dihydropyridin-1(2H)-yl)prop-2-en-1-one]			≤ 20	≤ 20
C=CC(=O)N1CC[C@H](Oc2nc(Nc3cc(F)ccc3C)cc3c2ccn3C)C1 [Example 138, (S)-1-(3-((6-((5-fluoro-2-methylphenyl)amino)-1-methyl-1H-pyrrolo[3,2-c]pyridin-4-yl)oxy)pyrrolidin-1-yl)prop-2-en-1-one]	> 500	> 500		
C=CC(=O)N1CCC[C@H](Oc2nc(Nc3ncc(C)s3)cc3c2ccn3CCOC)C1 [Example 148, (S)-1-(3-((1-(2-methoxyethyl)-6-((5-methylthiazol-2-yl)amino)-1H-pyrrolo[3,2-c]pyridin-4-yl)oxy)piperidin-1-yl)prop-2-en-1-one]	≤ 20	≤ 20		

Continued, values first:

IC50 (BTK; [1]) [nM]	IC50 (ITK; [2]) [nM]	IC50 (BTK; [3]) [nM]	IC50 (ITK; [4]) [nM]	Structure (SMILES)
≤ 20	≤ 20			C=CC(=O)N1C[C@@H](F)[C@H](Oc2nc(Nc3ncc(C)s3)cc3c2ccn3C[C@@H](C)CC)C1 [Example 175, 1-((3R,4R)-3-fluoro-4-((1-((S)-2-methylbutyl)-6-((5-methylthiazol-2-yl)amino)-1H-pyrrolo[3,2-c]pyridin-4-yl)oxy)pyrrolidin-1-yl)prop-2-en-1-one]
≤ 20	≤ 20			C=CC(=O)N1C[C@@H](F)[C@H](Oc2nc(Nc3ncc(C)s3)cc3c2ccn3CCC)C1 [Example 161, 1-((3R,4R)-3-fluoro-4-((6-((5-methylthiazol-2-yl)amino)-1-propyl-1H-pyrrolo[3,2-c]pyridin-4-yl)oxy)pyrrolidin-1-yl)prop-2-en-1-one]
≤ 20	≤ 20			C=CC(=O)N1C[C@@H](Oc2nc(Nc3ncc(C)s3)cc3c2ccn3CC(C)C)C[C@H]1C [Example 96, 1-((2R,4S)-4-((1-isobutyl-6-((5-methylthiazol-2-yl)amino)-1H-pyrrolo[3,2-c]pyridin-4-yl)oxy)-2-methylpyrrolidin-1-yl)prop-2-en-1-one]
≤ 20	≤ 20			C=CC(=O)N1CCC1COc1nc(Nc2ncc(C)s2)cc2c1ccn2C1CCCC1 (centres unmarked) [Example 218, 1-(2-(((1-cyclopentyl-6-((5-methylthiazol-2-yl)amino)-1H-pyrrolo[3,2-c]pyridin-4-yl)oxy)methyl)azetidin-1-yl)prop-2-en-1-one]
≤ 20	≤ 20	≤ 20	≤ 20	C=CC(=O)N1CC=C(c2nc(Nc3ncc(C)s3)cc3c2ccn3CC(F)F)CC1 [Example 12, 1-(4-(1-(2,2-difluoroethyl)-6-((5-methylthiazol-2-yl)amino)-1H-pyrrolo[3,2-c]pyridin-4-yl)-3,6-dihydropyridin-1(2H)-yl)prop-2-en-1-one]
≤ 20	≤ 20			C=CC(=O)N1CC[C@H](Oc2nc(Nc3ncc(C)s3)cc3c2ccn3C)C1 [Example 130, (S)-1-(3-((1-methyl-6-((5-methylthiazol-2-yl)amino)-1H-pyrrolo[3,2-c]pyridin-4-yl)oxy)pyrrolidin-1-yl)prop-2-en-1-one]
≤ 20	≤ 20			C=CC(=O)N1CC[C@H](Oc2nc(Nc3ncc(C)s3)cc3c2ccn3CCOC)C1 [Example 127, (S)-1-(3-((1-(2-methoxyethyl)-6-((5-methylthiazol-2-yl)amino)-1H-pyrrolo[3,2-c]pyridin-4-yl)oxy)pyrrolidin-1-yl)prop-2-en-1-one]
≤ 20	20 to 100			C=CC(=O)N1CC[C@H](Oc2nc(Nc3cc(C)[nH]n3)cc3c2ccn3C(C)C)C1 [Example 194, (S)-1-(3-((1-isopropyl-6-((5-methyl-1H-pyrazol-3-yl)amino)-1H-pyrrolo[3,2-c]pyridin-4-yl)oxy)pyrrolidin-1-yl)prop-2-en-1-one]
